Reference: patent US20260055118A1, “VISIBLE LIGHT SENSITIVE PHOTOREMOVABLE PROTECTING GROUPS, PREPARATION PROCESS THEREOF, PHOTOACTIVATABLE CONJUGATES COMPRISING THEM AND USES THEREOF” (HUN-REN TERMÉSZETTUDOMÁNYI KUTATÓKÖZPONT, priority 2022, published 2026)

Legend:
[1] = Spectroscopic properties of the target conjugates in PBS; type: physicochemical
Method: All starting materials were obtained from commercial suppliers and used without further purification. Analytical thin-layer chromatography (TLC) was performed on silica gel 60 F254 precoated aluminum TLC plates from Merck. Flash column chromatography was performed on Teledyne Isco CombiFlash® Rf+ automated flash chromatographer with silica gel (25-40 μm) from Zeochem. NMR spectra were recorded on a Varian Inova 500 MHz spectrometer. Chemical shifts (δ) are given in parts per million (ppm) using solvent signals or TMS as the reference. Coupling constants (J) are reported in Hertz (Hz). Analytical RP-HPLC-UV/Vis-MS measurements were employed using a Shimadzu LCMS-2020 instrument applying a Gemini C18 column (100×2.00 mm I.D.) in which the stationary phase is […] with a pore size of 110 Å. The chromatograms were detected by a UV-Vis diode array (190-800 nm) and an ESI-MS detector. The following linear gradient elution profile was applied, 0 min 0% B; 6.5 min 100% B; 7 min 0% B; 8 min. 0% B) with eluent A (2% HCOOH, 5% MeCN and 93% water) and B (2% HCOOH, 80% MeCN and 18% water) at a flow rate of 1.0 mL min-1 at 30° C. The samples were dissolved in MeCN—water mixtures. Spectroscopic measurements were performed on a Jasco FP 8300 spectrofluorometer. Quartz cuvettes with path length of 1 cm were used.
The spectroscopic properties of the target conjugates were determined in PBS. […] Compounds with Q=O have absorption bands in the green-yellow region while Q=CMe2 derivatives absorb in the red (up to 700 nm). All of the compounds have moderate to high absorption coefficients and significant fluorescence. The spectroscopic details can be found in Table 1. In the table, λmax means absorption maximum; λem means fluorescence emission maximum; s means molar absorption coefficient (at the absorption maximum).

[2] = Uncaging quantum yield determination relative to BODIPY reference; type: physicochemical; settings: calculated from the disappearance of the target conjugate; green light irradiation
Method: The relative photochemical quantum yields of the uncaging reactions together with the degradation quantum yields were determined from the results of the quantitative HPLC-UV experiments. In all cases, green light irradiation was used since all target conjugates absorbed in this range as well as the reference BODIPY. The photochemical quantum yields were determined using the following equation:
[formula] • where • Φu is the photochemical quantum yield of the sample • Φu,ref is the photochemical quantum yield of the reference • k is the obtained reaction rate constant of the photoreaction of the sample • kref is the obtained reaction rate constant of the photoreaction of the reference • c is the concentration of the sample • cref is the concentration of the reference • V is the volume of the sample • Vref is the volume of the reference • a is the absorption correction factor of the sample • aref is the absorption correction factor of the reference
The absorption correction factors (a) were determined from the molar absorption coefficients and the green LED emission data obtained by the fluorimeter. […] In other words, the transmittance at each wavelength together with the emission data of the light source can be used to calculate the percentage of absorbed photons according to the following equation:
[formula] • where • T(λ) is the transmittance at each wavelength (determined from the molar absorption coefficients) • F(λ) is the LED emission at each wavelength • λmin, λmax is the LED emission range.
The rate constants of the photoreactions were determined by considering the reactions monoexponential with an initial linear phase (up to 10-20% degradation). First, the concentration vs. HPLC-UV peak were determined for each cargo moieties. […] The rate constants were determined for both the reference (with known Φu) and the sample. For reference, a commonly known BODIPY derivative was used with a similar phenylacetic acid-derived cargo unit (substrate 7 from REF^40), Φu=0.15%:
The calculated photochemical quantum yields together with uncaging cross-sections or quantum efficiencies (product of the molar absorption coefficient at a given wavelength, shown in parentheses and the photochemical quantum yield) are shown in Table 2. In the table, Φu is the photochemical quantum yield of the release; Φdeg is the photochemical quantum yield of degradation; ε×Φu is the uncaging cross-section or quantum efficiency of the release at a given wavelength in parentheses.

[3] = system: SK-OV-3 cells; experiment: Live cell confocal fluorescence imaging (cell permeability, colocalization); type: cell-based, human; settings: live SK-OV-3 cells, confocal microscopy
Method: SKOV3 (ATCC HTB-77) cells were maintained in McCoy's 5A (Modified) Medium, HEPES (Gibco 22330021) media supplemented with 10% FBS (Gibco 10500-064), 1% penicillin-streptomycin (Gibco 15140-122). The cells were cultured at 37° C. in a 5% CO2 atmosphere and passaged—using trypsin (Gibco 25300-054)—every 3-4 days up to 20 passages.
SKOV3 ([…]) cells were transferred into μ-Slide 8 well plates (Ibidi 80827) and were incubated for 40 h at 37° C. in a 5% CO2 atmosphere. After 30 min treatment with compounds X1′-SN38 and X2′—SN38 in the concentration of 1 μM and in some cases in combination with 1 nM MitoTracker Deep Red FM (Invitrogen M22426) or 1 nM LysoTracker Deep red (Invitrogen L12492) or 50 nM MitoTracker Red FM (Invitrogen M22425) or 50 nM LysoTracker red DND-99 (Invitrogen L7528). The samples were subjected to microscopy analyses. […]
Due to their high fluorescence, the cell permeability of compounds X1′-SN38 and X2′-SN38 were tested in live SK—OV-3 (human ovarian carcinoma) cells using confocal microscopy. […] The decrease of fluorescence (related to the photolysis reaction) was only observed in the irradiated area. Overall, these experiments serve as evidence for the cell permeability, biocompatibility and excellent ability of this invention to determine the localization of the photoactivatable conjugates via fluorescence microscopy.

Which “λem (fluorescence emission maximum)” value [1] does the source give for `CCc1c2c(nc3ccc(OC(=O)N(C)CCN(C)C(=O)OC(C)c4c5ccc(=[N+]6CCCC6)cc-5oc5cc(N6CCCC6)ccc45)cc13)-c1cc3c(c(=O)n1C2)COC(=O)C3(O)CC.[I-]` (mixture of isomers) [X1′-SN38] here?
Its value is 594 nm.

And the “λmax (absorption maximum)” value [1]?
Its value is 575 nm.

What about the “ε (molar absorption coefficient)” value ([1]; at the absorption maximum) of the same compound?
The value was 61 200 M^−1cm^−1.

What about the “Φdeg, degradation quantum yield” value [2] of the same compound?
The value was 0.15%.

And the cell permeability [3]?
Its cell permeability is “cell permeable”.
